Results: patent publication US7094414B2, “Famotidine injections” (Astellas Pharma Inc., priority 2000, dated 2006)

Columns and labels:
[1] = Kinematic viscosity of aqueous solutions of non-aqueous solvents (25° C.); assay type: physicochemical
From the text: The “kinematic viscosity” herein is a value obtained by dividing viscosity of a liquid by its density and means a value measured using an Ubbelohde viscometer in accordance with Japanese Pharmacopoeia viscosity measuring method. In the invention, according to Japanese Pharmacopoeia, centistokes in CGS system is used as a unit.
These water-soluble acid amides may be used singly or as a mixture of two or more of them. Furthermore, within a range imparting no serious influence on viscosity, in addition to these, water-soluble non-aqueous solvents shown in JP-A-11-193233, for example, those described in the following Table 1 may be used as auxiliary solubilizing means.

[2] = as described in JP-B-63-65047; cited from earlier work

| Kinematic viscosity of aqueous solution ([1]; concentration 5% (W/V)) [Centistokes] | Kinematic viscosity of aqueous solution ([1]; concentration 10% (W/V)) [Centistokes] | Kinematic viscosity of aqueous solution ([1]; concentration 15% (W/V)) [Centistokes] | Kinematic viscosity of aqueous solution ([1]; concentration 20% (W/V)) [Centistokes] | Kinematic viscosity of aqueous solution ([1]; concentration 37% (W/V)) [Centistokes] | Structure (SMILES) | water-solubility [2] [w/v %] |
| --- | --- | --- | --- | --- | --- | --- |
| 1.082 | 1.300 | 1.577 | 1.857 | 2.479 | CCO [Ethanol] | – |
| – | – | – | – | – | NC(N)=Nc1nc(CSCCC(N)=NS(N)(=O)=O)cs1 [Famotidine] | ≤ 0.1 |
| 1.067 | 1.247 | 1.455 | 1.729 | 3.048 | CC(O)CO (centres unmarked) [Propylene glycol] | – |
